Key:
[1] = test system: RIG-I deficient CT26 RIG-I−/− cells; assay: CXCL10 secretion by RIG-I deficient CT26 RIG-I−/− cells (ELISA); assay type: cell-based, murine; details: compound 5 to 20 μM, 24 h
Procedure: (§1) The CT26 murine colon carcinoma cell line (ATCC) was used to evaluate the induction of CXCL10 secretion. CXCL10 is an important chemokine in tumor immune biology that recruits tumor-specific T cells to the tumor. To confirm that compound-mediated CXCL10 production was RIG-I specific, RIG-1 deficient CT2-RIG-I−/−cells were generated by Kineta Inc. using CRISPR technology.
(§2) CT26 cells were seeded at a density of 1×10^4 cells per well on a 96-well tissue culture plate in 100 μL of cell culture and cells were incubated at 37° C. and 5% CO2 for 24 hr. Next, CT26 cells were treated with compounds at the indicated concentrations. CXCL10 was quantified by ELISA from supernatants taken 24 h after compound stimulation by use of the CXCL10 Duo Set ELISA kit (Cat #DY466, R&D, Minneapolis, Minn., USA) according to the manufacturer's instructions.
(§3) CXCL10 secretion by CT26 cells in response to compounds (in an amount of 5 to 20 μM) of the present disclosure is shown in Table 8. The compound-induced CXCL10 production was RIG-I dependent, since none of the compounds mediated CXCL10 secretion in RIG-I deficient CT26 RIG-I−/−cells (about 0 pg/mL of CXCL10, or below the level of quantitation). The compounds (10 μM, *20 μM, **5 μM) are indicated in the table as follows: “≠” indicates less than 100 pg/mL; “+” indicates 100-199 pg/mL; “++” indicates 200-399 pg/mL; “+++” indicates 400-799 pg/mL; “++++” indicates 800 to 1599 pg/mL; “+++++” indicates greater than or equal to 1600 pg/ml.

[2] = test system: IRF3-deficient THP1-Lucia™ ISG IRF3−/− cells; assay: THP1-Lucia ISG IRF3−/− reporter assay (IRF3-deficient control cells); assay type: cell-based, human; details: compound 5 to 20 μM, 18 h
Procedure: (§4) The promoter was comprised of five IFN-stimulated response elements (ISRE) fused to an ISG54 minimal promoter which is unresponsive to NF-kB or AP-1 pathways. […] The IRF3-deficient THP1-Lucia™ ISG IRF3−/−reporter cell line was generated by CRISPR technology from the parent THP1-Lucia™ ISG reporter cell line.
(§5) THP1-Lucia™ ISG cells and IRF3-deficient THP1-Lucia™ ISG IRF3−/−cells were differentiated with PMA (100 ng/ml) and stimulated with compounds at the indicated concentrations (5 to 20 μM), positive control, or not treated (background). Luciferase secretion was quantified using the QUANTI-Luc luciferase assay system (InvivoGen) 18 h after stimulation. Data are shown as fold increase luciferase activity over background in Table 7 and represent the IRF3-dependent ISG54 promoter activity by the THP1-Lucia™ ISG cells in response to compounds. […] The fold increase of compounds (10 μM, *20 μM, **5 μM) induced IRF3 dependent luciferase activity is indicated as follows: “≠” indicates less than 2.4 fold increase; “+” indicates a 2.4-4.9 fold increase; “++” indicates a 5-9.9 fold increase; “+++” indicates a 10-19 fold increase; “++++” indicates a 20-39 fold increase; “+++++” indicates greater than or equal to 40 fold increase.

[3] = test system: murine CT26 colon carcinoma cells; assay: RIG-I dependent CXCL10 secretion by CT26 cells (ELISA); assay type: cell-based; details: supernatant 24 h after stimulation
Procedure: as §1, §2, §3

[4] = test system: IRF3 signaling pathway in THP1-Lucia™ ISG cells; assay: THP1-Lucia ISG reporter assay: induction of IRF3-dependent gene expression (secreted luciferase); assay type: cell-based, human; details: Homo sapiens, THP1-Lucia ISG, PMA-differentiated cells, 18 h after stimulation, read-out: fold increase of IRF3-dependent luciferase activity over background, THP1 ISG; for fold induction at 10 µM: 10 μM compound
Procedure: The compounds were evaluated in the THP1-Lucia™ ISG (interferon stimulated genes) reporter assay to determine if the compounds activate the IRF3 signaling pathway. The THP1-Lucia™ cells (InvivoGen) express the secreted luciferase (Lucia) reporter gene under the control of an IRF-inducible promoter. The reporter cell line was developed from human monocytic leukemia THP-1 cells.
as §4, §5

| Compound | CXCL10 secretion, CT26 RIG-I−/− [1] | fold increase of luciferase activity, THP1 ISG IRF3−/− [2] | CXCL10 secretion, CT26 ([3]; 10 μM compound) | fold induction at 10 µM [4] | fold induction at 20 µM ([4]; 20 μM compound (*)) | CXCL10 secretion, CT26 ([3]; 5 μM compound (**)) | CXCL10 secretion, CT26 ([3]; 20 μM compound (*)) | fold induction at 5 µM ([4]; 5 μM compound (**)) |
| --- | --- | --- | --- | --- | --- | --- | --- | --- |
| 6-[2-(morpholin-4-yl)ethoxy]-N-{4-oxo-5,12-dithia-3-azatricyclo[7.3.0.0^2,^6]dodeca-1,6,8,10-tetraen-11-yl}-1-benzothiophene-5-carboxamide [Example 70] | − | − (less than 0.5 fold above baseline was considered below the level of quantitation) |  |  |  |  |  |  |
| COc1nc2c(ccc3nc(NC(=O)c4cc5ccccc5cc4OCCCN4CCOCC4)sc32)s1 [Example 31, N-{11-methoxy-3,10-dithia-5,12-diazatricyclo[7.3.0.0^2,^6]dodeca-1,4,6,8,11-pentaen-4-yl}-3-[3-(morpholin-4-yl)propoxy]naphthalene-2-carboxamide] | − |  | ++ (200-399 pg/mL) | 5 to 9.9 |  |  |  |  |
| COc1nc2c(ccc3nc(NC(=O)c4cc5ccccc5cc4OCCCCN4CCOCC4)sc32)s1 [Example 32, N-{11-methoxy-3,10-dithia-5,12-diazatricyclo[7.3.0.0^2,^6]dodeca-1,4,6,8,11-pentaen-4-yl}-3-[4-(morpholin-4-yl)butoxy]naphthalene-2-carboxamide] | − |  | ++ (200-399 pg/mL) | 10 to 19 |  |  |  |  |
| O=C(Nc1nc2ccc3scnc3c2s1)c1cc2ccccc2cc1OCCN1CC2CC1CO2 (centres unmarked) [Example 33, N-{3,10-dithia-5,12-diazatricyclo[7.3.0.0^2,^6]dodeca-1,4,6,8,11-pentaen-4-yl}-3-(2-{2-oxa-5-azabicyclo[2.2.1]heptan-5-yl}ethoxy)naphthalene-2-carboxamide] | − |  | ++++ (800 to 1599 pg/mL) |  | 10 to 19 |  |  |  |
| O=C(Nc1nc2ccc3scnc3c2s1)c1cc2ccccc2cc1OCCN1CC2(COC2)C1 [Example 34, N-{3,10-dithia-5,12-diazatricyclo[7.3.0.0^2,^6]dodeca-1,4,6,8,11-pentaen-4-yl}-3-(2-{2-oxa-6-azaspiro[3.3]heptan-6-yl}ethoxy)naphthalene-2-carboxamide] | − |  |  | 2.4 to 4.9 |  | +++** (400-799 pg/mL) |  |  |
| CSc1nc2c(ccc3nc(NC(=O)c4cc5ccccc5cc4OCCN4CCOCC4)sc32)s1 [Example 35, N-[11-(methylsulfanyl)-3,10-dithia-5,12-diazatricyclo[7.3.0.0^2,^6]dodeca-1,4,6,8,11-pentaen-4-yl]-3-[2-(morpholin-4-yl)ethoxy]naphthalene-2-carboxamide] | − |  |  | 5 to 9.9 |  |  | ++* (200-399 pg/mL) |  |
| CSc1nc2c(ccc3nc(NC(=O)c4cc5ccccc5cc4OCCCN4CCOCC4)sc32)s1 [Example 36, N-[11-(methylsulfanyl)-3,10-dithia-5,12-diazatricyclo[7.3.0.0^2,^6]dodeca-1,4,6,8,11-pentaen-4-yl]-3-[3-(morpholin-4-yl)propoxy]naphthalene-2-carboxamide] | − |  | +++ (400-799 pg/mL) | 5 to 9.9 |  |  |  |  |
| O=C(Nc1nc2ccc3scnc3c2s1)c1ccc(-c2ccccc2)cc1OCCCCN1CCOCC1 [Example 38, N-{3,10-dithia-5,12-diazatricyclo[7.3.0.0^2,^6]dodeca-1,4,6,8,11-pentaen-4-yl}-3-[4-(morpholin-4-yl)butoxy]-[1,1′-biphenyl]-4-carboxamide] | − |  | +++ (400-799 pg/mL) | 5 to 9.9 |  |  |  |  |
| O=C(Nc1nc2ccc3scnc3c2s1)c1ccc2cc(OCCCCN3CCOCC3)ccc2c1 [Example 39, N-{3,10-dithia-5,12-diazatricyclo[7.3.0.0^2,^6]dodeca-1,4,6,8,11-pentaen-4-yl}-6-[4-(morpholin-4-yl)butoxy]naphthalene-2-carboxamide] | − |  | ++ (200-399 pg/mL) | 5 to 9.9 |  |  |  |  |
| O=C(Nc1nc2ccc3scnc3c2s1)c1cc2c(cc1OCCN1CCOCC1)OCO2 [Example 40, N-{3,10-dithia-5,12-diazatricyclo[7.3.0.0^2,^6]dodeca-1,4,6,8,11-pentaen-4-yl}-6-[2-(morpholin-4-yl)ethoxy]-2H-1,3-benzodioxole-5-carboxamide] | − |  | ≠ (less than 100 pg/mL) | 20 to 39 |  |  |  |  |
| O=C(Nc1nc2ccc3scnc3c2s1)c1cc2c(cc1OCCCCN1CCOCC1)OCO2 [Example 41, N-{3,10-dithia-5,12-diazatricyclo[7.3.0.0^2,^6]dodeca-1,4,6,8,11-pentaen-4-yl}-6-[4-(morpholin-4-yl)butoxy]-2H-1,3-benzodioxole-5-carboxamide] | − |  | + (100-199 pg/mL) | 2.4 to 4.9 |  |  |  |  |
| O=C(Nc1nc2ccc3scnc3c2s1)c1cc2ccsc2cc1OCCN1CCOCC1 [Example 42, N-{3,10-dithia-5,12-diazatricyclo[7.3.0.0^2,^6]dodeca-1,4,6,8,11-pentaen-4-yl}-6-[2-(morpholin-4-yl)ethoxy]-1-benzothiophene-5-carboxamide] | − |  |  | < 2.4 |  |  | +* (100-199 pg/mL) |  |
| O=C(Nc1nc2ccc3scnc3c2s1)c1cc2ccsc2cc1OCCCCN1CCOCC1 [Example 43, N-{3,10-dithia-5,12-diazatricyclo[7.3.0.0^2,^6]dodeca-1,4,6,8,11-pentaen-4-yl}-6-[4-(morpholin-4-yl)butoxy]-1-benzothiophene-5-carboxamide] | − |  | +++ (400-799 pg/mL) | 10 to 19 |  |  |  |  |
| CCN(CCO)CCOc1cc2ccccc2cc1C(=O)Nc1nc2ccc3scnc3c2s1 [Example 45, N-{3,10-Dithia-5,12-diazatricyclo[7.3.0.0^2,6]dodeca-1,4,6,8,11-pentaen-4-yl}-3-{2-[ethyl(2-hydroxyethyl)amino]ethoxy}naphthalene-2-carboxamide carboxamide] | − |  | +++ (400-799 pg/mL) | 10 to 19 |  |  |  |  |
| O=C(Nc1nc2ccc3scnc3c2s1)c1cc2ccccc2cc1OCCNCCO [Example 46, N-{3,10-dithia-5,12-diazatricyclo[7.3.0.0^2,^6]dodeca-1,4,6,8,11-pentaen-4-yl}-3-{2-[(2-hydroxyethyl)amino]ethoxy}naphthalene-2-carboxamide] | − |  | +++ (400-799 pg/mL) |  |  |  |  | 2.4 to 4.9 |
| O=C(Nc1nc2ccc3scnc3c2s1)c1cc2ccccc2cc1OCCN1CCNCC1 [Example 47, N-{3,10-Dithia-5,12-diazatricyclo[7.3.0.0^2,6]dodeca-1,4,6,8,11-pentaen-4-yl}-3-[2-(piperazin-1-yl)ethoxy]naphthalene-2-carboxamide] | − |  | + (100-199 pg/mL) | 2.4 to 4.9 |  |  |  |  |

Source: patent publication US20200055871A1, “ACTIVATORS OF THE RETINOIC ACID INDUCIBLE GENE "RIG-I" PATHWAY AND METHODS OF USE THEREOF” (Kineta Immuno-Oncology LLC, priority 2018, published 2020)
